The nature of data set [1]: Plasma concentration after I.V. doses. It is filed as in vivo, dogs. As to the method:
(§1) Effects on cats and dogs. […] Plasma concentrations of enviroxime were 3.0, 8.9 and 19 µg/mL following these I.V. doses. Bioassay (antiviral) and biochemical assay of blood yielded similar results.

For data set [2] the following is noted: cited from earlier work.
The test system of a further data set is coxsackieviruses. The following applies: cited from earlier work.
A further data set concerns rhinoviruses. As to conditions: all rhinoviruses tested; generally range; cited from earlier work.
The next data set relates to histamine. Briefly: Effects in vitro on muscle: receptor activation. On the set-up: species or system rats. The following applies: rat muscle in vitro, 10⁻⁵ to 10⁻⁸M. As to the method:
(§2) Effects in vitro on muscle. Muscle from many organs of rats was tested with 10⁻⁵ to 10⁻⁸M enviroxime.

Another data set deals with adrenergic. Briefly: Effects in vitro on muscle: receptor activation. As to conditions: rat muscle in vitro, 10⁻⁵ to 10⁻⁸M. On the set-up: species or system rats. As for the experimental part:
as §2

Another data set relates to prostaglandin E2. Briefly: Effects in vitro on muscle: receptor activation. On the set-up: species or system rats. As to conditions: rat muscle in vitro, 10⁻⁵ to 10⁻⁸M. As to the method: as §2
For data set [3], the system named is primary antibody response. It is filed as in vivo. The following applies: mice.
Data set [4] can be described thus: Animal tolerance: effects of oral doses in mice. It counts as in vivo.
The next data set has as its system polioviruses. The following applies: cited from earlier work.
The test system of data set [5] is Muscle from many organs of rats. Briefly: Effects in vitro on muscle: antagonism of dose response curves. As to conditions: rat muscle in vitro, 10⁻⁵ to 10⁻⁸M; similar to that of potassium chloride. As to the method: as §2
Data set [6] is described as follows: Animal tolerance: cardiovascular effects in cats. It is filed as in vivo. As to the method: as §1
Data set [7] is described as follows: Animal tolerance: diastolic blood pressure in dogs. As to conditions: following 1, 3, and 10 mg/kg I.V. doses. It is filed as in vivo. As to the method: as §1
A short description of data set [8]: Animal tolerance: effects on electrolytes and urine output. As to conditions: rats. It is filed as in vivo. The text has this:
Effects on electrolytes. […] The oliguria was associated with increases in potassium in serum but not sodium.

Another data set has as its system cells in culture. The following applies: cited from earlier work.
A further data set deals with echoviruses. As to conditions: cited from earlier work.
Where [9] appears, read: associated with the oliguria at 25 mg/kg and above.

SMILES strings stand for the structures.

In the case of `CC(C)S(=O)(=O)n1c(N)nc2ccc(/C(=N/O)c3ccccc3)cc21` [enviroxime], the Plasma concentrations in data set [1] (following 1 mg/kg I.V. dose) was found to be 3000 ng/mL; in data set [1] (following 3 mg/kg I.V. dose) it was 8900 ng/mL; in data set [1] (following 10 mg/kg I.V. dose), 19000 ng/mL. Further, the soluble in water in data set [2] was 1 to 2 µg/mL. Besides, the activity against coxsackieviruses entry in the data set on coxsackieviruses is listed as “active”. In the data set with rhinoviruses, the inhibitory concentrations was 0.3 to 0.9 µg/mL. Moreover, the “activation of histamine receptors” value with histamine is listed as “did not activate”. The “activation of adrenergic receptors” value in the data set with adrenergic was “did not activate”. Besides, the “activation of prostaglandin E2 receptors” value with prostaglandin E2 is “did not activate”. Further, the “immune suppressive activity on primary antibody response” value in data set [3] is on record as “no immune suppressive activity”. For the same compound, the effects in mice entry in data set [4] (50 mg/kg orally) was “no detectable effects”; in data set [4] (higher doses, 100-400 mg/kg), “increasing leg weakness, decreased motor activity and gait disturbances”. Also, in data set [4] (mice, high doses), the “onset of the effect of high doses” value is “within a few minutes”. The “tolerance of oral doses” value in data set [4] (oral doses up to 100 mg/kg, a number of other tests) is recorded as “well tolerated”. The activity against polioviruses result in the data set with polioviruses is on record as “active”. In [5], the “antagonism of dose response curves” value was “some non-competitive antagonism”. Also, the cardiovascular effects result in [6] is “no significant cardiovascular effects”. The diastolic blood pressure entry in [7] is on record as “some stepwise depression”. For the same compound, in [8] (setting [9]), the potassium in serum result is “increases”. Besides, the sodium in serum entry in data set [8] (setting [9]) is listed as “not”. Moreover, the oliguria result in [8] (dose of 25 mg/kg and above) is “significant oliguria”. Further, the “Maximum tolerated concentrations for cells in culture” value in the data set with cells in culture is given as 4 to 100 µg/mL. For the same compound, the activity against echoviruses entry with echoviruses is given as “active”.
